Where “and” joins values, the source holds several entries; their conditions need not be identical. Identical values can stand only once.
What was measured:
[1] = In vitro dose response: SPME GC/MS headspace analysis of raw macerated garlic solution treated with active; conditions: for GC/MS Peak Area (diallyl disulfide headspace): individual runs; for GC/MS Peak Area (diallyl disulfide headspace), Mean: mean of 3 runs; for reduction of diallyl disulfide headspace concentration: vs control garlic solution
Description: A model solution containing raw chopped garlic (20 g) dispersed in water (200 ml) was prepared by blending in a Waring commercial blender (Waring Commercial, Torrington, Conn.) at low power for 30 seconds and at high power for 30 seconds. The resulting solution was homogeneous with no visible garlic particles present.
A portion of the raw, macerated garlic solution (5 g) was treated with different levels of potential ameliorating actives and the headspace was extracted and analyzed (as described in greater detail below) to determine the effect of the potential actives on the headspace concentration of compounds contributing to oral cavity malodor associated with consumption of garlic.
Headspace of a vessel containing a portion of the garlic solution (5 ml) treated with a potential active was extracted for 60 minutes utilizing solid phase microextraction (SPME) with a 75 μm Carboxen-polydimethyl siloxane fiber (Supelco, Bellefonte, Pa.).
The SPME fiber assembly was injected into an Agilent 6890 gas chromatograph (GC)/mass spectrometer (MS) modified for multidimensional analyses and equipped with a sniff port and Aroma Trax software (Microanalytics, Round Rock, Tex.). Fibers remained in the GC injection port for five minutes following injection.
The GC/MS operating parameters included a He carrier gas flow rate of 6.5 ml/min, split mode (2:1) and the injector set at 250° C. Column 1 was 12 meter, 0.53 mm I.D. with a methyl silica stationary phase. Column 2 was a 25 meter, 0.53 mm DB-5 capillary column. The oven was programmed to hold at 40° C. for 3 minutes and to heat to 220° C. at a rate of 7° C./min and hold at 220° C. for 20 minutes. The MS operated in Electron Impact Mode (E.I.) at 70 eV.
A model solution containing raw chopped garlic dispersed in water was prepared as described in Example 1. […] For comparison purposes, the diallyl disulfide content of the headspace of a control model solution (i.e., no menthone added) was also analyzed.

[2] = Sensory analysis: ten panelists rate the odor intensity of the raw macerated garlic solution with added active; conditions: for Odor Intensity (0–100): individual panelists, 0=no odor, 100=very strong odor; for Odor Intensity (0–100), Mean: mean of N = 10 panelists
Description: Sensory analysis of the solutions utilized for analytical analyses of the raw garlic described above was conducted by ten panelists who evaluated the odor intensity of the model solution (raw macerated garlic) with and without the different levels of added active. Odor intensity was assessed utilizing a 0-100 point scale ballot with 0=no odor and 100=very strong odor.

**Q.** For caryophyllene, which “GC/MS Peak Area (diallyl disulfide headspace)” value ([1]; 0.1 mg/g garlic solution) is on record?
**A.** Its value is 52155883 and 49803124 and 56316479.

**Q.** What about the “GC/MS Peak Area (diallyl disulfide headspace), Mean” value (from here on “GC/MS Peak Area … Mean”) ([1]; 0.1 mg/g garlic solution) of the same compound?
**A.** Its value is 52758495.

**Q.** What about the “GC/MS Peak Area (diallyl disulfide headspace)” value ([1]; 0.24 mg/g garlic solution) of the same compound?
**A.** The value was 67591321 and 69400527 and 61729644.

**Q.** What about the “GC/MS Peak Area … Mean” value ([1]; 0.24 mg/g garlic solution) of the same compound?
**A.** Its value is 66240497.

**Q.** What about the “GC/MS Peak Area (diallyl disulfide headspace)” value ([1]; 0.4 mg/g garlic solution) of the same compound?
**A.** The value was 93422075 and 91167385 and 94368797.

**Q.** What about the “GC/MS Peak Area … Mean” value ([1]; 0.4 mg/g garlic solution) of the same compound?
**A.** Its value is 92986086.

**Q.** And the “reduction of diallyl disulfide headspace concentration” value ([1]; active concentration 0.1 mg/g)?
**A.** The value was 34%.

**Q.** What about the “reduction of diallyl disulfide headspace concentration” value ([1]; active concentration 0.4 mg/g) of the same compound?
**A.** The value was 63%.

**Q.** And the “Odor Intensity (0–100)” value ([2]; 0.1 mg/g)?
**A.** Its value is 5 (3×) and 6 (2×) and 2 and 4 (3×) and 7.

**Q.** And the “Odor Intensity (0–100), Mean” value ([2]; 0.1 mg/g)?
**A.** Its value is 4.8.

**Q.** What about the “Odor Intensity (0–100)” value ([2]; 0.2 mg/g) of the same compound?
**A.** The value was 4 (2×) and 5 (3×) and 9 (2×) and 8 and 3 (2×).

**Q.** What about the “Odor Intensity (0–100), Mean” value ([2]; 0.2 mg/g) of the same compound?
**A.** The value was 5.5.

**Q.** What about the “Odor Intensity (0–100)” value ([2]; 0.4 mg/g) of the same compound?
**A.** The value was 2 and 5 and 3 (3×) and 4 (3×) and 0 and 1.

**Q.** And the “Odor Intensity (0–100), Mean” value ([2]; 0.4 mg/g)?
**A.** Its value is 2.9.

**Q.** And the “decrease of odor intensity (sensory)” value ([2]; active concentration 0.1 mg/g)?
**A.** The value was 52%.

**Q.** And the “decrease of odor intensity (sensory)” value ([2]; active concentration 0.4 mg/g)?
**A.** Its value is 71%.

**Q.** With CC(C)[C@@H]1CC[C@@H](C)CC1=O [menthone] as the compound, how does the “GC/MS Peak Area (diallyl disulfide headspace)” value ([1]; 0.3 mg/g garlic solution) read?
**A.** Its value is 46610414 and 58241626 and 60764744.

**Q.** And the “GC/MS Peak Area … Mean” value ([1]; 0.3 mg/g garlic solution)?
**A.** The value was 55205595.

**Q.** And the “GC/MS Peak Area (diallyl disulfide headspace)” value ([1]; 1 mg/g garlic solution)?
**A.** The value was 20835556 and 16829160 and 16827232.

**Q.** And the “GC/MS Peak Area … Mean” value ([1]; 1 mg/g garlic solution)?
**A.** The value was 18163983.

**Q.** What about the “GC/MS Peak Area (diallyl disulfide headspace)” value ([1]; 3 mg/g garlic solution) of the same compound?
**A.** The value was 6746448 and 4757863 and 5868573.

**Q.** And the “GC/MS Peak Area … Mean” value ([1]; 3 mg/g garlic solution)?
**A.** Its value is 5790961.3.

**Q.** And the “less diallyl disulfide in headspace than control model solution” value ([1]; Example 3: 1.63 mg in 2.5 g model solution, at each headspace analysis interval (5 hour intervals))?
**A.** Its value is “at least 50%”.

**Q.** What about the “Odor Intensity (0–100)” value ([2]; 0.33 mg/g) of the same compound?
**A.** Its value is 1 (2×) and 6 and 7 (4×) and 5 and 8 and 3.

**Q.** And the “Odor Intensity (0–100), Mean” value ([2]; 0.33 mg/g)?
**A.** The value was 5.2.

**Q.** What about the “Odor Intensity (0–100)” value ([2]; 1 mg/g) of the same compound?
**A.** The value was 1 and 2 (6×) and 4 (2×) and 6.

**Q.** And the “Odor Intensity (0–100), Mean” value ([2]; 1 mg/g)?
**A.** Its value is 2.7.

**Q.** What about the “Odor Intensity (0–100)” value ([2]; 3 mg/g) of the same compound?
**A.** The value was 2 (2×) and 0 (2×) and 4 (2×) and 3 (2×) and 1 (2×).

**Q.** And the “Odor Intensity (0–100), Mean” value ([2]; 3 mg/g)?
**A.** Its value is 2.

**Q.** What about the “reduction of odor of raw macerated garlic in water (sensory)” value ([2]; active concentration 0.3 mg/g) of the same compound?
**A.** The value was 48%.

**Q.** And the “reduction of odor of raw macerated garlic in water (sensory)” value ([2]; active concentration 3 mg/g)?
**A.** Its value is 80%.

Reference: patent US7666685B2, “Screening method for identification of compounds suitable for treatment of oral cavity malodor associated with consumption of garlic” (Wm. Wrigley Jr. Company, priority 2005, dated 2010)
